Experimental data reported in patent US20210077668A1, “Highly Adherent Polymers for Orthopedic Device Coatings” (Clemson University Research Foundation, priority 2018, published 2021).

Key:
Assay type in all cases: cell-based
[1] = tested on: S. aureus; assay: Maximum concentration of bacteria inactivated in the presence of 1 cm pieces of K-wires
Method: Control K-wires were coated with monolaurin (ML), a natural antimicrobial agent active against S. aureus. Sample K-wires were coated with a copolymer formed from 20 mole percent glycidyl methacrylate, 60 mole percent ethylene glycol methacrylate and 20 mole percent ethylene glycol methacrylate available as OEGMA 950 from Sigma Aldrich. Some of the K-wires were pulled through Septa™, to simulate surgical insertion, and the antimicrobial activity was measured. Each example was replicated nine times.

[2] = tested on: S. aureus; assay: Bacteria count versus time with coated K-wires (FIG. 1)
Method: Additional tests were done wherein bacterial count was monitored versus time for different bacteria. In FIG. 1 the bacteria count was measured for S. aureus versus time. The K-wire alone as a control was ineffective as expected.

[3] = tested on: Methicillin-Resistant Staphylococcus Aureus (MRSA); assay: Bacteria count versus time with coated K-wires (FIG. 2)
[4] = tested on: S. aureus biofilms; assay: Effectiveness against biofilms, K-wires incubated in S. aureus for 48 hours (FIG. 4); conditions: S. aureus 48 hours
Method: Effectiveness of the inventive examples against biofilms was determined. Samples were prepared including a control K-wire (Control), a K-wire coated with ML only but not passed through a Septa™ (ML Coated), a sample treated with ML and passed through a Septa™ (ML Coated Septa), and inventive examples comprising ML with polymer, using OEGMA as the hydrophilic moiety (ML/POEGMA). Some of the inventive samples were passed through a Septa™ (ML/POEGMA Septa). The samples were all incubated in S. aureus for 48 hours. The results are provided graphically in FIG. 4.

[5] = tested on: S. aureus biofilms; assay: S. aureus biofilm formation on 1 cm K-wire pieces, 48 hours (Example 3)
Method: The performance of Copolymer A was compared to poly(lactide-co-glycolide) PLGA) with monolaurin as a model antimicrobial additive. S. aureus biofilms were grown by statically incubating a S. Aureus suspension with 1 cm K-wire pieces for 48 hours.

SMILES: CCCCCCCCCCCC(=O)OCC(O)CO (centres unmarked) [ML, monolaurin]
- Maximum concentration of bacteria inactivated in the presence of 1 cm pieced of K-wires ([1]; No Polymer after Septa, ML 1 mg/ml): 0
- Maximum concentration of bacteria inactivated in the presence of 1 cm pieced of K-wires ([1]; No Polymer after Septa, ML 3 mg/ml): 0
- Maximum concentration of bacteria inactivated in the presence of 1 cm pieced of K-wires ([1]; No Polymer after Septa, ML 5 mg/ml): 0
- Maximum concentration of bacteria inactivated in the presence of 1 cm pieced of K-wires ([1]; No Polymer after Septa, ML 10 mg/ml): 0
- Maximum concentration of bacteria inactivated in the presence of 1 cm pieced of K-wires ([1]; No Polymer, no Septa, ML 1 mg/ml): ~6 × 10^6
- Maximum concentration of bacteria inactivated in the presence of 1 cm pieced of K-wires ([1]; No Polymer, no Septa, ML 3 mg/ml): ~7 × 10^6
- Maximum concentration of bacteria inactivated in the presence of 1 cm pieced of K-wires ([1]; No Polymer, no Septa, ML 5 mg/ml): ~6 × 10^6
- Maximum concentration of bacteria inactivated in the presence of 1 cm pieced of K-wires ([1]; No Polymer, no Septa, ML 10 mg/ml): ~8 × 10^6
- bacteria count versus time (course) [2]: immediate decrease in bacteria due to essentially immediate release of ML, however, the activity was not sustained
- bacteria count versus time (course) [3]: results similar to those observed for S. aureus
- effectiveness against biofilms ([4]; not passed through a Septa): effective resistance
- effectiveness against biofilms ([4]; passed through a Septa): removed or otherwise rendered ineffective
- antimicrobial activity against biofilm formation ([5]; after pulling the wires through silicon rubber Septa caps): lost the antimicrobial activity
- prevention of biofilm formation ([5]; before pulling through Septa, S. aureus 48 hours): efficient in preventing biofilm formation
